The text below walks through data of PubChem BioAssay (NCI).

Test systems include 786-0 renal; A549 NSCLC; CAKI-1 renal; DMS 273 small cell lung; HOP-18 NSCLC; HS 578T breast; MDA-MB-231 breast; RPMI-8226 leukemia; SK-OV-3 ovarian; TK-10 renal.
Experiment in all cases: NCI anticancer screen, dose series, 48 h

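Test compounds were applied to cells in 96-well plates for 48 hours at 5 doses. The concentration for 50% growth inhibition is given as GI50. TGI denotes the concentration required for complete inhibition of growth.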

In the case of `CC[C@@]1(O)C(=O)OCc2c1cc1n(c2=O)Cc2cc3c(N)cccc3nc2-1`, the GI50 is 4.8 nM in the test on 786-0 renal, 70.1 nM with A549 NSCLC, 8.49 nM in the test on CAKI-1 renal and 86.5 nM in the test on HS 578T breast. The TGI is 45.7 nM with 786-0 renal; 2310 nM with A549 NSCLC; 858 nM with CAKI-1 renal; 111 nM in the test on DMS 273 small cell lung; 7.64 µM in the test with HOP-18 NSCLC; greater than 60.7 µM in the test on HS 578T breast. The TGI in the test on MDA-MB-231 breast was greater than 19.9 µM; in the test with RPMI-8226 leukemia, 4.72 µM; in the test with SK-OV-3 ovarian, 1680 nM; in the test on TK-10 renal, 38.2 µM.
